Read-outs that look alike come from different tables or passages of the source.
What was measured:
α5β3γ2 GABAA receptors = α5β3γ2 GABAA receptors (Homo sapiens, UniProt P18507+P31644); assay: [3H]Ro15-1788 binding, membranes of Ltk cells stably expressing α5β3γ2 GABAA receptors
GABAA receptors (α5β2γ2) = target: T1, GABAA receptors (α5β2γ2) (Homo sapiens, UniProt P18507+P31644); assay: Positive allosteric modulator activity: potentiation of EC20 GABA current in oocytes; format: cell-based; settings: read-out: GABA α5 Functional Data (potentiation of EC20 GABA)
T1 construct: expressed in transfected cells
T1 sequence (P31644 32-462): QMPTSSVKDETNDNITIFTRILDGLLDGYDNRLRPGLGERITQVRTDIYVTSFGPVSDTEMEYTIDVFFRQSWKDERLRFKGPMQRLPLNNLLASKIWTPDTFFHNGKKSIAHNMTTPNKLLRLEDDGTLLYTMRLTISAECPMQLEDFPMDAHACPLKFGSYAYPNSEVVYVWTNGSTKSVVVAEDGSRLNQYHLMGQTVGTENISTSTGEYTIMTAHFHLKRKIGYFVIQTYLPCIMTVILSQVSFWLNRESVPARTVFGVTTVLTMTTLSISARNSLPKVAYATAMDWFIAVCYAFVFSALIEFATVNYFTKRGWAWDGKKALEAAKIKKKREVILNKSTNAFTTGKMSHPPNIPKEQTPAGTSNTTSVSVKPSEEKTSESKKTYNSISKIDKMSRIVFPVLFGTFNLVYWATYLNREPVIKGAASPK
T1 sequence (P47870 25-512, further chain): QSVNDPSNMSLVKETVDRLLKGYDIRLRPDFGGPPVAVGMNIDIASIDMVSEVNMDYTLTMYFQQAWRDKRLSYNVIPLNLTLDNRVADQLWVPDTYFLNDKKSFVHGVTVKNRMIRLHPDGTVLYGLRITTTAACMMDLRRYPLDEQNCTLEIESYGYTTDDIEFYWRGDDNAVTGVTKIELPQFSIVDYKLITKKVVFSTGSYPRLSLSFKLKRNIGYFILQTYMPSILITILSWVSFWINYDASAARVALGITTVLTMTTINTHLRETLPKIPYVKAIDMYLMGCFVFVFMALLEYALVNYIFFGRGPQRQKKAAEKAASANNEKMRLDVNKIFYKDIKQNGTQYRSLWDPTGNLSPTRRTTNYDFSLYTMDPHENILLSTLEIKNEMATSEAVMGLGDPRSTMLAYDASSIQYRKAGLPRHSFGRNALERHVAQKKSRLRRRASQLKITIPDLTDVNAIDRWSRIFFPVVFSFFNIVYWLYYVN
T1 sequence (P18507 40-475): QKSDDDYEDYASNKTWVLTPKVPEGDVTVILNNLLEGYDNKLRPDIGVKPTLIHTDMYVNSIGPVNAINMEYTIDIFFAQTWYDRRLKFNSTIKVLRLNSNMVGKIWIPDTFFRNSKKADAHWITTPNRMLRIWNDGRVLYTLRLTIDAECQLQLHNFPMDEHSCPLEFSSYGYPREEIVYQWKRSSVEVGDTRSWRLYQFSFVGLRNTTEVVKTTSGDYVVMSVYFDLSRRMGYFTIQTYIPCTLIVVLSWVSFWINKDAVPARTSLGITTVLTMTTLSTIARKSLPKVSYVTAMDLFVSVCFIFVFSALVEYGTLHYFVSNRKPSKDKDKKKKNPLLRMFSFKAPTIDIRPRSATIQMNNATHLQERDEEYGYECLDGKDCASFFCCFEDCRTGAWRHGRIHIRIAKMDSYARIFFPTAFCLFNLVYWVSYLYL
Experimental: On day 1, 1 ng/32 nL of GABAA α5β2γ2 cDNA was injected into one oocyte. Test starts on day 2. The cDNA injected to the oocytes was a mix of alpha, beta and gamma, their ratio is 1:1:10 (by weight) and the total weight of the mixed 3 subunits to be injected in one oocyte was 1 ng in 32 nl volume. The injected oocytes can also be tested on day 3. In such case, the cDNA amount injected to the oocytes should be reduced by 20%.
1). 8 oocytes were placed in 8 chambers of OpusXpress and superfused with Modified Barth's Saline (MBS) at 3 mL/min. Glass electrodes back-filled with 3M KCl (0.5-3 megaohms) were used.
1). New oocytes were used to run new test.
3). […] Oocytes were washed with MBS for 5-10 min.
4). […] Itest was divided by IGABA to obtain potentiation (%).
Test Compounds at Multiple Doses • 1). Repeat the above steps 1), 2) and 3) in the control test. • 2). […] Divide Itest by IGABA to obtain potentiation (%). • 3). Discard all tested oocytes, new oocytes were used and the above steps 1) and 2) were repeated to test second concentration of the same compound. Each oocyte was used for only one concentration test for a single test compound. The steps were repeated for other test compounds.

[1] = ranges, inhibition of [3H]Ro15-1788 binding

α5β3γ2 GABAA receptors, sequence (P31644 32-462): as the sequence (P31644 32-462) above
α5β3γ2 GABAA receptors, sequence (P28472 26-473 partner): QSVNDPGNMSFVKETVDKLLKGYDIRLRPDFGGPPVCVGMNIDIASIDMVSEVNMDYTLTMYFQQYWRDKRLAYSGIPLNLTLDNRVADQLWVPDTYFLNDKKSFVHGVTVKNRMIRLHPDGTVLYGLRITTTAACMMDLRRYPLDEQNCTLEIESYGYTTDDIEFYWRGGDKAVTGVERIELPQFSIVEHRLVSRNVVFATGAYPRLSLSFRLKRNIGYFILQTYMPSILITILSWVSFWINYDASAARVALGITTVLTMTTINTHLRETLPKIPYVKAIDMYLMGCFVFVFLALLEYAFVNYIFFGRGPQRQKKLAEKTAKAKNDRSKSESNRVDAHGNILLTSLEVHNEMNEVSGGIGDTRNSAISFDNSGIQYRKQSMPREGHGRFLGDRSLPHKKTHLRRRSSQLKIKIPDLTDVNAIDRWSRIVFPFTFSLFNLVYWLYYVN
α5β3γ2 GABAA receptors, sequence (P18507 40-475): as the sequence (P18507 40-475) above

Row | Compound | Ki (α5β3γ2 GABAA receptors; [1]) [nM] | activation at 0.1 µM (GABAA receptors (α5β2γ2); @ 100 nM, ranges) [%] | Ki (α5β3γ2 GABAA receptors) [nM] | activation at 0.1 µM (GABAA receptors (α5β2γ2)) [%]
1 | Cc1nnc(-c2ncn3c2Cc2cnnn2-c2cc(Cl)ccc2-3)o1 [Compound 508] | < 100 | 5 to 20 | – | –
2 | Cc1nnc(-c2ncn3c2Cc2cnnn2-c2cc(Cl)ccc2-3)s1 [Compound 509] | – | – | < 100 | 20 to 50
3 | COc1ccc2c(c1)-n1nncc1Cc1c(C3=NC[C@H](c4ccccc4)O3)ncn1-2 [Compound 511] | < 100 | 5 to 20 | – | –
4 | COc1ccc2c(c1)-n1nncc1Cc1c(C3=NC[C@@H](c4ccccc4)O3)ncn1-2 [Compound 512] | < 100 | 5 to 20 | – | –
5 | Clc1ccc2c(c1)-n1nncc1Cc1c(C3=NC[C@H](c4ccccc4)O3)ncn1-2 [Compound 513] | < 100 | 20 to 50 | – | –
6 | Clc1ccc2c(c1)-n1nncc1Cc1c(C3=NC[C@@H](c4ccccc4)O3)ncn1-2 [Compound 514] | < 100 | 5 to 20 | – | –
7 | Clc1cccc([C@@H]2COC(c3ncn4c3Cc3cnnn3-c3cc(Cl)ccc3-4)=N2)c1 [Compound 515] | < 100 | 5 to 20 | – | –
8 | COc1ccc2c(c1)-n1nncc1Cc1c(C3=N[C@H](c4cccc(Cl)c4)CO3)ncn1-2 [Compound 516] | < 100 | 5 to 20 | – | –
9 | COc1ccc2c(c1)-n1nncc1Cc1c(C3=N[C@H](c4ccc(Cl)cc4)CO3)ncn1-2 [Compound 517] | < 100 | 20 to 50 | – | –
10 | Clc1ccc([C@@H]2COC(c3ncn4c3Cc3cnnn3-c3cc(Cl)ccc3-4)=N2)cc1 [Compound 518] | < 100 | 5 to 20 | – | –
11 | COc1ccc2c(c1)-n1nncc1Cc1c(C3=N[C@H](c4ccc(F)cc4)CO3)ncn1-2 [Compound 519] | < 100 | 20 to 50 | – | –
12 | COc1ccc([C@@H]2COC(c3ncn4c3Cc3cnnn3-c3cc(OC)ccc3-4)=N2)cc1 [Compound 520] | < 100 | 5 to 20 | – | –
13 | COc1ccc([C@@H]2COC(c3ncn4c3Cc3cnnn3-c3cc(Cl)ccc3-4)=N2)cc1 [Compound 521] | < 100 | 20 to 50 | – | –
14 | Fc1ccc([C@@H]2COC(c3ncn4c3Cc3cnnn3-c3cc(Cl)ccc3-4)=N2)cc1 [Compound 522] | < 100 | 5 to 20 | – | –
15 | Clc1ccc2c(c1)-n1nncc1Cc1c(-c3cn(Cc4ccccc4)nn3)ncn1-2 [Compound 523] | < 100 | 5 to 20 | – | –
16 | COCc1nnc2n1Cc1c(C#Cc3ccc(OC)cc3)ncn1-c1ccc(Cl)cc1-2 [Compound 526] | < 100 | 5 to 20 | – | –
17 | COCc1nnc2n1Cc1c(C#Cc3ccc(OC)nc3)ncn1-c1ccc(Cl)cc1-2 [Compound 527] | < 100 | 20 to 50 | – | –
18 | COCc1nnc2n1Cc1c(C#Cc3ccc(OC)cn3)ncn1-c1ccc(Cl)cc1-2 [Compound 528] | < 100 | > 50 | – | –
19 | COc1ccc2c(c1)-n1nncc1Cc1c(C#Cc3ccc(OC)nc3)ncn1-2 [Compound 530] | < 100 | 5 to 20 | – | –
20 | COc1ccc(C#Cc2ncn3c2Cc2cnnn2-c2cc(OC)ccc2-3)nc1 [Compound 531] | < 100 | 5 to 20 | – | –
21 | CC(C)(C)C#Cc1ncn2c1Cc1cnnn1-c1cc(Cl)ccc1-2 [Compound 534] | < 100 | 5 to 20 | – | –
22 | COc1ccc2c(c1)-n1nncc1Cc1c(C#CC(C)(C)C)ncn1-2 [Compound 535] | < 100 | 5 to 20 | – | –
23 | CC(C)(C)c1nc(-c2ncn3c2Cc2cnnn2-c2cc(Cl)ccc2-3)no1 [Compound 536] | < 100 | 20 to 50 | – | –
24 | Clc1ccc2c(c1)-n1nncc1Cc1c(-c3noc(-c4ccccc4)n3)ncn1-2 [Compound 537] | < 100 | 20 to 50 | – | –
25 | CC(C)c1nc(-c2ncn3c2Cc2cnnn2-c2cc(Cl)ccc2-3)no1 [Compound 538] | < 100 | 20 to 50 | – | –
26 | Cc1nc(-c2ncn3c2Cc2cnnn2-c2cc(Cl)ccc2-3)no1 [Compound 539] | < 100 | 5 to 20 | – | –
27 | Clc1ccc2c(c1)-n1nncc1Cc1c(COCc3ccccc3)ncn1-2 [Compound 544] | < 100 | 5 to 20 | – | –
28 | COc1ccc(C#Cc2ncn3c2Cc2cnnn2-c2cc(C(F)(F)F)ccc2-3)cn1 [Compound 553] | < 100 | 5 to 20 | – | –
29 | COc1ccc(C#Cc2ncn3c2Cc2cnnn2-c2cc(OC(F)F)ccc2-3)cn1 [Compound 555] | < 100 | 5 to 20 | – | –
